The results in this text go back to patent US6706725B1, “Vitamin D analogues” (Galderma Research & Development, S.N.C., priority 1999, dated 2004).

The target in this test is T1, human VDR receptor (Homo sapiens, UniProt P11473).
T1 construct: expressed in transfected cells; host or cells: HeLa
T1 sequence (P11473 1-427): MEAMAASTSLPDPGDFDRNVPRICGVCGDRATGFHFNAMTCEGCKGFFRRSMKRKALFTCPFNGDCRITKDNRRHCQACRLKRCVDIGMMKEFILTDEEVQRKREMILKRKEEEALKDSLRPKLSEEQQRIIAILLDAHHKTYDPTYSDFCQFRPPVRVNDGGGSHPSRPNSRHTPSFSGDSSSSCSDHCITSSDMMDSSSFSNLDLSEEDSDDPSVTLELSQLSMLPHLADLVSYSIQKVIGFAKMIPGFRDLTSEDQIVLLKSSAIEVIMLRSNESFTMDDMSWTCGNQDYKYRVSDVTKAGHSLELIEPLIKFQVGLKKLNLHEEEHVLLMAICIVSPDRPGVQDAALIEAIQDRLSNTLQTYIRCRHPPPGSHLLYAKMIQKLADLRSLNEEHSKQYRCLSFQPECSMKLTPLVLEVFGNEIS
Put plainly: VDR agonist activity by co-transfection in HeLa cells (human VDR expression vector + p240Hase-CAT reporter, CAT ELISA). It is filed as cell-based. The following applies: HeLa cell line co-transfected with human VDR and rat 24-hydroxylase promoter-CAT reporter; treatment for 18 hours; read-out: AC 50 (dose required to achieve 50% of the maximum activity of the product). The protocol:
By way of example, the VDR agonist activity can be tested on the HeLa cell line by co-transfection with an expression vector for the human VDR receptor and the reporter plasmid p240Hase-CAT which contains the region −1399 to +76 of rat 24-hydroxylase promoter, cloned upstream of the frame encoding the chloramphenicol-acetyl-transferase (CAT) gene. 18 hours after co-transfection, the test product is added to the medium. After treatment for 18 hours, assay of the CAT activity in the cell lysates is carried out by an ELISA test. The results are expressed as percentages of the effect normally observed with 10^−7M calcitriol.
The agonist activity can also be characterized in the co-transfection system, by determining the dose required to reach 50% of the maximum activity of the product (AC50).
The VDR agonist activity was tested on the HeLa cell line, by co-transfection of an expression vector of the human VDR receptor and of the reporter plasmid p240Hase-CAT which contains the region −1399 to +76 of the rat 24-hydroxylase promoter, cloned upstream of the coding frame of the chloramphenicol-acetyl-transferase (CAT) gene. 18 hours after co-transfection, the test product is added to the medium. After treatment for 18 hours, the CAT activity of the cell lysates is assayed by an ELISA test. The results are expressed as a percentage of the effect normally observed with 10^−7 M of calcitriol.
The agonist activity was characterized in this co-transfection system by determining the dose required to achieve 50% of the maximum activity of the product (AC50).
Background: An ELISA detects its analyte on a solid surface through an enzyme-linked reagent.
As for `CCC(O)(CC)CC/C=C(\C)c1ccc(COc2ccc(CO)c(CO)c2)s1` [Example 1, (E)-7-[5-(3,4-bis-Hydroxymethyl-phenoxymethyl)-2-thienyl]-3-ethyloct-6-en-3-ol], the AC50 is 192 nM.
In the case of `CCC(O)(CC)CC/C=C(\C)c1cc(COc2ccc(CO)c(CO)c2)cs1` [Example 2, (E)-7-[4-(3,4-bis-Hydroxymethyl-phenoxymethyl)-2-thienyl]-3-ethyloct-6-en-3-ol], the AC50 was 267 nM.
To `CC/C(=C\CCC(O)(CC)CC)c1cccc(COc2ccc(CO)c(CO)c2)n1` [Example 4, (E)-7-[6-(3,4-bis-Hydroxymethyl-phenoxymethyl)-2-pyridyl]-3-ethylnon-6-en-3-ol] belongs 294 nM; to `CC/C(=C\CCC(O)(CC)CC)c1ccc(COc2ccc(CO)c(CO)c2)s1` [Example 6, (E)-7-[5-(3,4-bis-Hydroxymethyl-phenoxymethyl)-2-thienyl]-3-ethylnon-6-en-3-ol], 61 nM.
Regarding `CC/C(=C\C=C\C(O)(CC)CC)c1ccc(COc2ccc(CO)c(CO)c2)s1` [Example 7, (4E,6E)-7-[5-(3,4-bis-Hydroxymethyl-phenoxymethyl)-2-thienyl]-3-ethylnona-4,6-dien-3-ol], the AC50 came out at 17 nM.
Then `CC/C(=C\CCC(O)(CC)CC)c1ccc(CCc2ccc(CO)c(CO)c2)s1` [Example 8, (E)-7-{5-[2-(3,4-bis-Hydroxymethyl-phenyl)ethyl]-2-thienyl}-3-ethylnon-6-en-3-ol], with 29 nM; and `CC/C(=C\CCC(O)(CC)CC)c1cc(CCc2ccc(CO)c(CO)c2)cs1` [Example 10, (E)-7-[4-[2-(3,4-bis-Hydroxymethyl-phenyl)ethyl]-2-thienyl)-3-ethylnon-6-en-3-ol], with 23 nM.
Then `CC/C(=C\CCC(O)(CC)CC)c1csc(COc2ccc(CO)c(CO)c2)c1` [Example 12, (E)-7-[5-(3,4-bis-Hydroxymethyl-phenoxymethyl)-3-thienyl]-3-ethylnon-6-en-3-ol], with 655 nM; and `CC/C(=C\C=C\C(O)(C(F)(F)F)C(F)(F)F)c1ccc(COc2ccc(CO)c(CO)c2)s1` [Example 13, (3E,5E)-6-[5-(3,4-bis-Hydroxymethyl-phenoxymethyl)-2-thienyl]-1,1,1-trifluoro-2-trifluoromethylocta-3,5-dien-2-ol], with 78 nM.
